Measured values as given in ChEMBL document CHEMBL3525934 (Drug Metab Dispos, 2013).

What was measured:
Assay type in all cases: ADME
Conditions in all cases: 0.5 h
[1] = target: T1, Cytochrome P450 1B1 (Homo sapiens, UniProt Q16678); assay: Drug metabolism in supersomes expressing human recombinant CYP1B1 assessed as enzyme-mediated N-desmethylclozapine metabolite formation at 10 uM after 30 mins measured per nmol of P450 by HPLC analysis
T1 sequence (Q16678 whole entry): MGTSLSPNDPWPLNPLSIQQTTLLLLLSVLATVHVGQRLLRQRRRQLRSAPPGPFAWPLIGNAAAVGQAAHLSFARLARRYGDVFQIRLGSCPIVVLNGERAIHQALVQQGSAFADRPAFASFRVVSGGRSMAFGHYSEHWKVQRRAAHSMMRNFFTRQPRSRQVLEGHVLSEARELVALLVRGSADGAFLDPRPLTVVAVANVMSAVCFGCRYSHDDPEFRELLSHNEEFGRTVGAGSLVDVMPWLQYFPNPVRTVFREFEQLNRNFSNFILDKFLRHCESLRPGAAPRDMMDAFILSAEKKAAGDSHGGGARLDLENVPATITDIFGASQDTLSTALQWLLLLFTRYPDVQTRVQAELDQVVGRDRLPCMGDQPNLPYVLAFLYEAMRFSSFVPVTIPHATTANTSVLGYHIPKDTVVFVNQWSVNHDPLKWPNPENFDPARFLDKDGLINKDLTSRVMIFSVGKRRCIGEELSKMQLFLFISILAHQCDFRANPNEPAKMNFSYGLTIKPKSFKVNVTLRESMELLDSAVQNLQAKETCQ

[2] = target: T1, Cytochrome P450 1B1; assay: Drug metabolism in supersomes expressing human recombinant CYP1B1 assessed as enzyme-mediated N-desmethylclozapine metabolite formation at 100 uM after 30 mins measured per nmol of P450 by HPLC analysis
[3] = target: Cytochrome P450 2C9 (Homo sapiens, UniProt P11712); assay: Drug metabolism in supersomes expressing human recombinant CYP2C9 assessed as enzyme-mediated N-desmethylclozapine metabolite formation at 100 uM after 30 mins measured per nmol of P450 by HPLC analysis
[4] = target: T2, Cytochrome P450 1A1 (Homo sapiens, UniProt P04798); assay: Drug metabolism in supersomes expressing human recombinant CYP1A1 assessed as enzyme-mediated cyanide adduct formation at 100 uM after 30 mins measured per nmol of P450 by HPLC analysis in presence of KCN
T2 sequence (P04798 whole entry): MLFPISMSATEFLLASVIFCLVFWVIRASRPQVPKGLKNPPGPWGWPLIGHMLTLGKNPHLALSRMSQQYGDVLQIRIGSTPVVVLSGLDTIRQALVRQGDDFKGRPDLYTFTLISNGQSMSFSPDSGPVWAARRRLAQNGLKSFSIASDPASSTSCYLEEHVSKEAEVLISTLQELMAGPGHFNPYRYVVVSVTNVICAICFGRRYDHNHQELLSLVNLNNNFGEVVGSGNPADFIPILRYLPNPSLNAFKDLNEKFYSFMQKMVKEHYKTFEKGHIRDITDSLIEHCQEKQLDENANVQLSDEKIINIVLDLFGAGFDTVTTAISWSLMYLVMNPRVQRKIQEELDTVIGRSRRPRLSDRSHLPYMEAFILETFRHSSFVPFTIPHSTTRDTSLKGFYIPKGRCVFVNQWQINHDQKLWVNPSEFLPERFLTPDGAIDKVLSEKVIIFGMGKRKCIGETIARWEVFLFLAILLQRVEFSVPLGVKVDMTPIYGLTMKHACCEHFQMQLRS

[5] = target: T3, Cytochrome P450 1A2 (Homo sapiens, UniProt P05177); assay: Drug metabolism in supersomes expressing human recombinant CYP1A2 assessed as enzyme-mediated clozapine-N-oxide metabolite formation at 10 uM after 30 mins measured per nmol of P450 by HPLC analysis
T3 sequence (P05177 whole entry): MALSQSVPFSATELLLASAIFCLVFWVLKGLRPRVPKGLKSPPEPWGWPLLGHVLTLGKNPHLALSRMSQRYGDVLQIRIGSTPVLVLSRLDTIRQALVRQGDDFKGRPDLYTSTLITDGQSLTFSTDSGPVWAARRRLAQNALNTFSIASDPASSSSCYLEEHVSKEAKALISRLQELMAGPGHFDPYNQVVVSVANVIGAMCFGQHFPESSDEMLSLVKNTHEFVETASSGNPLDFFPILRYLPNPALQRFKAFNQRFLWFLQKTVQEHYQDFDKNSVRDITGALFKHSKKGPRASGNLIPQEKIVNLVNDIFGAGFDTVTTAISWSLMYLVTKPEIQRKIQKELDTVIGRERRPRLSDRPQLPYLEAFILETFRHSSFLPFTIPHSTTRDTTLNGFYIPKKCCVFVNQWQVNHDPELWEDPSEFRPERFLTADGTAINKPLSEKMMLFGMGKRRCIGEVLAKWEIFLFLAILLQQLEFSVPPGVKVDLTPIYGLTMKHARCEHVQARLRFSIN

[6] = target: Cytochrome P450 2C19 (Homo sapiens, UniProt P33261); assay: Drug metabolism in supersomes expressing human recombinant CYP2C19 assessed as enzyme-mediated N-desmethylclozapine metabolite formation at 10 uM after 30 mins measured per nmol of P450 by HPLC analysis
[7] = target: T4, Cytochrome P450 2C8 (Homo sapiens, UniProt P10632); assay: Drug metabolism in supersomes expressing human recombinant CYP2C8 assessed as enzyme-mediated clozapine-N-oxide metabolite formation at 100 uM after 30 mins measured per nmol of P450 by HPLC analysis
T4 sequence (P10632 whole entry): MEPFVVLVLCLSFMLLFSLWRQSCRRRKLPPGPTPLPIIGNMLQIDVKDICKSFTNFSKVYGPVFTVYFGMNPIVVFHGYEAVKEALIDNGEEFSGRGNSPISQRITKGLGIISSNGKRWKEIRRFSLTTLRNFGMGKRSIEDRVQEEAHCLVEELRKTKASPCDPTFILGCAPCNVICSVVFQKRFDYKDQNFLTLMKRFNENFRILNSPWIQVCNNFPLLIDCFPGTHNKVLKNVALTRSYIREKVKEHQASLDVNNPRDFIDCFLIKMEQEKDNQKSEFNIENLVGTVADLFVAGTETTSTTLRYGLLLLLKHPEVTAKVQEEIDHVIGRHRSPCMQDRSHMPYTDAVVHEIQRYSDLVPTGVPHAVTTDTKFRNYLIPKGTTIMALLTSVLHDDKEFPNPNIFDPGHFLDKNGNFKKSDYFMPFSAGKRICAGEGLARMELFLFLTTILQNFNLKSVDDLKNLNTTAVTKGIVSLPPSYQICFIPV

[8] = target: Cytochrome P450 2D6 (Homo sapiens, UniProt P10635); assay: Drug metabolism in supersomes expressing human recombinant CYP2D6 assessed as enzyme-mediated cyanide adduct formation at 100 uM after 30 mins measured per nmol of P450 by HPLC analysis in presence of KCN
[9] = target: T1, Cytochrome P450 1B1; assay: Drug metabolism in supersomes expressing human recombinant CYP1B1 assessed as enzyme-mediated clozapine-N-oxide metabolite formation at 10 uM after 30 mins measured per nmol of P450 by HPLC analysis

Sequence of Cytochrome P450 2C19 (P33261 whole entry): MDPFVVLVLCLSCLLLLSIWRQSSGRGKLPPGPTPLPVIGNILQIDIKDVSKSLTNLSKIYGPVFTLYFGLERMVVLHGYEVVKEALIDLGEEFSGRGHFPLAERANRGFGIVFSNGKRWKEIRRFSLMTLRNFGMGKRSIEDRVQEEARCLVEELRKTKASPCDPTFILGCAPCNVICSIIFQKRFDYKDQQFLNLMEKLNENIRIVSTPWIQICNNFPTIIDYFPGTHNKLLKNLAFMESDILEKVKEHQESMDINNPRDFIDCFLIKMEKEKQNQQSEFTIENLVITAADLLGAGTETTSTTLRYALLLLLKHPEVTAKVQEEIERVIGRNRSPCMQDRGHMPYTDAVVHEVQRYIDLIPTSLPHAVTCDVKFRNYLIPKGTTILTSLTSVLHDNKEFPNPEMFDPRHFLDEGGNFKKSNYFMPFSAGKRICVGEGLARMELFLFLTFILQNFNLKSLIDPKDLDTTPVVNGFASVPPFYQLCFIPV
Sequence of Cytochrome P450 2D6 (P10635 whole entry): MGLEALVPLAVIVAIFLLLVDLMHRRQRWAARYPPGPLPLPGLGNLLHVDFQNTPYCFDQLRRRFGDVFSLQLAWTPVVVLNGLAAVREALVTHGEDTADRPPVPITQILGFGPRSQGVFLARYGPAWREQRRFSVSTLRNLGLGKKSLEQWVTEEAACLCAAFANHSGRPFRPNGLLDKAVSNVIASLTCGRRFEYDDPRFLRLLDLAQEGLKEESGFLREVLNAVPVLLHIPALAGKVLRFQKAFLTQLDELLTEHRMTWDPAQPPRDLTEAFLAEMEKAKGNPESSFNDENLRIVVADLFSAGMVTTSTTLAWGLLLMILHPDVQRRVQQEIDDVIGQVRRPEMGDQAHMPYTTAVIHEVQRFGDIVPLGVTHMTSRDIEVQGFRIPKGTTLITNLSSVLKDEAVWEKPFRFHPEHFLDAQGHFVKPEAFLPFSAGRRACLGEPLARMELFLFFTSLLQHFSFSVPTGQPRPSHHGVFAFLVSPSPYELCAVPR
Sequence of Cytochrome P450 2C9 (P11712 whole entry): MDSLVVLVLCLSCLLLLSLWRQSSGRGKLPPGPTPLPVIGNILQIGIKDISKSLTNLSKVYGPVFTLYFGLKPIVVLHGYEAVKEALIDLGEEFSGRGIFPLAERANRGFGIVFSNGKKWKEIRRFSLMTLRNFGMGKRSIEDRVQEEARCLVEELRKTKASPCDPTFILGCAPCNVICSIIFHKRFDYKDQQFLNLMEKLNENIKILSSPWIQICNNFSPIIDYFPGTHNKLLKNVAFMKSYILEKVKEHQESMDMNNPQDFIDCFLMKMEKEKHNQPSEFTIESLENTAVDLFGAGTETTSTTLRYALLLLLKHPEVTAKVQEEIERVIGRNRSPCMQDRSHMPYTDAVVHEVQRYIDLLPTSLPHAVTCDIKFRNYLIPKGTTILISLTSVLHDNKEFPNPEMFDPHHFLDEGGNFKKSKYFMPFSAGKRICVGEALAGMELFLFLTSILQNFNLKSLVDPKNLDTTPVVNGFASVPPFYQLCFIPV

## CN1CCN(C2=Nc3cc(Cl)ccc3Nc3ccccc32)CC1 [CLOZAPINE]
[1]
  Drug metabolism: 1.16 nmol/min
[2]
  Drug metabolism: 0.94 nmol/min
[3]
  Drug metabolism: 0.22 nmol/min
[4]
  Drug metabolism: 0.024 nmol/min
[5]
  Drug metabolism: 0.55 nmol/min/nmol P450
[6]
  Drug metabolism: 6.62 nmol/min/nmol P450
[7]
  Drug metabolism: 0.075 nmol/min/nmol P450
[8]
  Drug metabolism: 0.64 nmol/min
[9]
  Drug metabolism: 0.84 nmol/min
